Assay results from US20240341340A1, “EYE DAMAGE PREVENTION COMPOSITION CONTAINING DENDROPANAX MORBIFERA LEV. EXTRACT” (KOREA GINSENG CORP., priority 2021, published 2024).

Tests used:
Format in all cases: in vivo, mouse
[1] = test system: BALB/c mice, white LED light-induced loss of optic nerve cells; assay: Outer nuclear layer thickness in light-induced macular degeneration animal model; conditions: 6.5 mg/kg/day oral for 7 days
Source text: When drusen accumulates in the macular area due to dry macular degeneration, the macular area is photooxidized and causes damage to surrounding tissues and optic nerve cells, thereby resulting in a decrease of visual acuity, and in severe cases, geographic atrophy occurs, a condition in which optic nerve cells are lost and retinal apoptosis is induced. In order to determine whether a Dendropanax morbifera extract has the effect of improving damage or deformation of photoreceptor cells in an animal model where optic nerve cell damage was caused by excessive irradiation of a light source including blue light and loss of optic nerve cells similar to dry macular degeneration, the changes in the thickness of outer nuclear layer (ONL) of the retina were measured. Specifically, 6-week-old male BALB/c mice (Orient Bio Inc.) were acclimatized for one week and then subjected to dark adaptation in a dark place without light for 14 hours from the evening before white LED exposure containing blue light, and then, their pupils were dilated with 1% tropicamide eye drop the next morning. […] The slide sections were stained with hematoxylin & eosin (H&E) and observed under an optical microscope, and damage or deformation of photoreceptor cells was evaluated by measuring changes in the thickness of the outer nuclear layer of retinal tissue

[2] = test system: BALB/c mice, MNU-induced loss of optic nerve cells; assay: Outer nuclear layer thickness in N-methyl-N-nitrosourea (MNU) animal model; conditions: 6.5 and 13 mg/kg/day oral for 7 days
Experimental: In order to confirm the effect of the Dendropanax morbifera extract on improving damage or deformation of photoreceptor cells, N-methyl-N-nitrosourea (MNU) toxic to photoreceptor cells was administered, and the changes in thickness of the outer nuclear layer (ONL) of the retina were measured in an animal model where loss of optic nerve cells similar to dry macular degeneration was induced. Specifically, 6-week-old male BALB/c mice (Orient Bio Inc.) were acclimatized for one week, and N-methyl-N-nitrosourea (MNU) (Sigma, USA) was prepared to a concentration of 1% in a 0.05% acetic acid solution and was administered intraperitoneally to mice at a concentration of 1%, 60 mg/kg per individual, in which only the same amount of 0.05% acetic acid was administered intraperitoneally in the negative control. The test drug was orally administered once daily for 7 days from the same day after administration of N-methyl-N-nitrosourea. […] The slide sections were stained with hematoxylin & eosin (H&E) and observed under an optical microscope, and damage or deformation of photoreceptor cells was evaluated by measuring changes in the thickness of the outer nuclear layer of retinal tissue.

[3] = test system: BALB/c mice, white LED light-induced loss of optic nerve cells; assay: Electroretinogram (wave a and wave b) in light-induced macular degeneration animal model; conditions: 6.5 mg/kg/day oral
Source text: An electroretinogram (ERG) is a degree of electric potential of the retinal optic nerve representing an electrical signal generated by a response of the optic nerve to light, and is used as an index to determine the presence/absence of retinal damage or disease. The electroretinogram consists of wave a and wave b, in which the wave a is generated by photoreceptors, and the wave b is generated by depolarization of bipolar cells in the inner nuclear layer of the retina by light stimulation. In order to confirm whether a Dendropanax morbifera extract has the effect of improving the decrease of activity of visual cells in an animal model in which optic nerve cell damage was caused by the irradiation of an excessive light source and loss of optic nerve cells similar to dry macular degeneration was induced, the electroretinogram was measured. […] An appropriate amount of 1% methylcellulose was added to the eyeballs while maintaining body temperature under general anesthesia, and the gold wire loops recording electrode was grounded to the cornea, and the reference electrode was placed on the cheek area, and the ground electrode was grounded to the tail, and then the electroretinogram was measured using Retiport (Roland Consult, Germany). […]

O=C(/C=C/c1ccc(O)c(O)c1)O[C@@H]1C[C@@](O)(C(=O)O)C[C@@H](O)[C@@H]1O [neochlorogenic acid, Neochlorogenic acid]
not statistically significant: increase of thickness of the outer nuclear layer (positive control) [1] | increase of thickness of the outer nuclear layer (positive control) [2] | improvement of retinal nerve conduction (positive control) [3]
